Results taken from patent publication US10710978B2, “STK4 inhibitors for treatment of hematologic malignancies” (Dana-Farber Cancer Institute, Inc., priority 2015, dated 2020).
Where two headings read alike, the source gives them in different places.

Columns and labels:
[1] = molecular target: STK4 (Homo sapiens (Human), UniProt Q13043); experiment: KiNativ Platform experiment, MM.1S cell lysates, biotinylated ATP, Western blot; assay type: binding; details: 10 μM, 20 minutes, then biotinylated ATP 10 minutes
Description: FIG. 32A and FIG. 32B show the results of a KiNativ™ Platform experiment obtained after incubating MM.1S cell lysates with 10 μM of the indicated compounds for 20 minutes, followed by incubation with biotinylated ATP for 10 minutes. FIG. 32A is a graph showing the ratio of MEK2 to STK4 derived from the Western blotting band signals in FIG. 32B, in MM.1S cell lysates treated with 10 μM of Compound I-9, I-13, or I-27 or KIN001-305 followed by incubation with biotinylated ATP. FIG. 32B is a Western blot showing the levels of STK4 and MEK2 in MM.1S cells treated with 10 μM of Compound I-9, I-13, or I-27 or KIN001-305 followed by incubation with biotinylated ATP.

[2] = tested on: BAX; experiment: Western blotting; assay type: cell-based; details: H929 cells, 1 μM, 24 hours
Excerpt: (§1) MM.1S, KMS20 and H929 cells are counted, diluted and plated. Cells are then […] with DMSO or different concentration of a compound of the present application for 6 hrs, 24 hrs or 48 hrs. MM cells are then collected and centrifuged at RT and the pellets are re-suspended in lysis buffer. Cell lysates are subjected to sodium dodecyl sulfate-polyacrylamide gel electrophoresis SDS-PAGE, transferred to nitrocellulose membranes, and immunoblotted with different antibodies.
(§2) MM.1S, KMS20 and H929 cells were counted, diluted and plated in six-well plates to a final concentration of 500,000 cells/well. Cells were then […] with DMSO or different concentration of a compound of the present application for 6 hrs, 24 hrs or 48 hrs. MM cells were then collected and centrifuged for 5 min, 1300 rpm at RT. The pellets were re-suspended in lysis buffer Laemli 1× (Laemli 5×: SDS 10%, DTT 500 mM, Tris-HCl pH6.8 0.4M, BromoFenol Blue, Glycerol 50%). Cell lysates were subjected to sodium dodecyl sulfate-polyacrylamide gel electrophoresis SDS-PAGE, transferred to nitrocellulose membranes, and immunoblotted with different antibodies: YAP1 (#4912), p-YAP1 (S127) (#13008), LATS1 (#9153), p-LATS1 (Thr1079) (#8654), MOB1 (#3863), p-MOB1 (Thr12) (#8843), p-MST1/p-MST2 (Thr183/Thr180) (#3681), p21 (#2947), PARP (#9532), ERK, STAT, and GAPDH (#5174) from Cell Signaling, Beverly, Mass., United States; STK4 (ab57836) (from Abcam, Cambridge, Mass., United States); PUMA (sc-28226), BAX (sc-20067), from Santa Cruz, Dallas, Tex., United States; β-actin from Sigma-Aldrich (St. Louis, Mo., United States). All antibodies were diluted 1:500, except for β-actin antibody (1:50,000 dilution). In FIG. 8, H929 cells were treated with Compound I-9 or DMSO at 1 μM concentration for 24 hours. Lysates were then obtained and immunoblot was performed using antibodies against PARP, YAP1, PUMA, BAX. p21, and GAPDH.

[3] = tested on: PARP; experiment: Western blotting; assay type: cell-based; details: H929 cells, 1 μM, 24 hours
Excerpt: as §1, §2

[4] = tested on: PUMA; experiment: Western blotting; assay type: cell-based; details: H929 cells, 1 μM, 24 hours
Excerpt: as §1, §2

[5] = tested on: p21; experiment: Western blotting; assay type: cell-based; details: H929 cells, 1 μM, 24 hours
Excerpt: as §1, §2

[6] = tested on: MM.1S cells; experiment: MTT cell growth assay with stromal cell supernatant; assay type: cell-based, human; details: 72 hours; for growth inhibitory effect of Lenalidomide/Pomalidomide in combination: in the presence of stromal cell supernatant
Description: FIG. 29 is a graph showing cell growth of MM.1S cells treated for 72 hours with Compound I-50 or I-51 alone or in combination with stromal cell supernatant in an MTT assay in triplicate.
FIG. 30 is a graph showing cell growth of MM.1S cells treated for 72 hours with Lenalidomide/Pomalidomide in the presence of stromal cell supernatant alone or in combination with Compound I-50 in an MTT assay in triplicate.
FIG. 31 is a graph showing cell growth of MM.1S cells treated for 72 hours with Lenalidomide/Pomalidomide in the presence of stromal cell supernatant alone or in combination with Compound I-51 in an MTT assay in triplicate.
MM. 1S, KMS20, H929 MM cells, RPMI/8226, OPM-2 and U266 were counted and diluted to a final concentration of 400,000 cells/mL. The cell were plated in 96-well plates and mixed with an equal volume of culture media containing DMSO or increasing concentration of a compound of the present application diluted in DMSO (the final DMSO concentration is equal between all tested samples), using a STARlet Robot (Hamiltonrobotics, Reno, Nev., United States). Cells with increasing concentration of compound of the present application and DMSO were […] at different time points (24 hrs to 72 hrs). Viability was assessed by MTT or Cell Titer 96® AQueous One Solution cell proliferation assay (Promega). Specifically, for the MTT assay, the 3-[4,5 dimethylthiazol-2-yl]-2,5 diphenyltetrazolium bromide-MTT (Sigma-Aldrich, St. Louis, Mo., Unites States) colorimetric survival assay was used. At the various time points (24-72 hrs), 10 μL of 5 mg/mL MTT were added to cells. After 4 hrs incubation at 37° C., medium was discarded and 100 μL MTT stop solution (DMSO or Isopropanol with 1 N HCl) was used to dissolve MTT metabolic products. Absorbance was read at 570/630 nm. For the Promega assay, at the various time points, 20 μL of Cell Titer solution is added to the cells. After 4 hrs of incubation at 37° C. absorbance was read at […].

[7] = molecular target: JAK2 domain2 (Homo sapiens (Human), UniProt O60674); experiment: KiNativ assay; assay type: binding; details: H929 live cell
Procedure, shortened: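 Compounds were tested in duplicate at 10 μM in live H929 cells, and kinase engagement was profiled by KiNativ with mass spectrometry read-out to derive IC50.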

[8] = range class, read-out: % inhibition

Chain of JAK2 domain2 (O60674 whole entry, the tested form may be a part): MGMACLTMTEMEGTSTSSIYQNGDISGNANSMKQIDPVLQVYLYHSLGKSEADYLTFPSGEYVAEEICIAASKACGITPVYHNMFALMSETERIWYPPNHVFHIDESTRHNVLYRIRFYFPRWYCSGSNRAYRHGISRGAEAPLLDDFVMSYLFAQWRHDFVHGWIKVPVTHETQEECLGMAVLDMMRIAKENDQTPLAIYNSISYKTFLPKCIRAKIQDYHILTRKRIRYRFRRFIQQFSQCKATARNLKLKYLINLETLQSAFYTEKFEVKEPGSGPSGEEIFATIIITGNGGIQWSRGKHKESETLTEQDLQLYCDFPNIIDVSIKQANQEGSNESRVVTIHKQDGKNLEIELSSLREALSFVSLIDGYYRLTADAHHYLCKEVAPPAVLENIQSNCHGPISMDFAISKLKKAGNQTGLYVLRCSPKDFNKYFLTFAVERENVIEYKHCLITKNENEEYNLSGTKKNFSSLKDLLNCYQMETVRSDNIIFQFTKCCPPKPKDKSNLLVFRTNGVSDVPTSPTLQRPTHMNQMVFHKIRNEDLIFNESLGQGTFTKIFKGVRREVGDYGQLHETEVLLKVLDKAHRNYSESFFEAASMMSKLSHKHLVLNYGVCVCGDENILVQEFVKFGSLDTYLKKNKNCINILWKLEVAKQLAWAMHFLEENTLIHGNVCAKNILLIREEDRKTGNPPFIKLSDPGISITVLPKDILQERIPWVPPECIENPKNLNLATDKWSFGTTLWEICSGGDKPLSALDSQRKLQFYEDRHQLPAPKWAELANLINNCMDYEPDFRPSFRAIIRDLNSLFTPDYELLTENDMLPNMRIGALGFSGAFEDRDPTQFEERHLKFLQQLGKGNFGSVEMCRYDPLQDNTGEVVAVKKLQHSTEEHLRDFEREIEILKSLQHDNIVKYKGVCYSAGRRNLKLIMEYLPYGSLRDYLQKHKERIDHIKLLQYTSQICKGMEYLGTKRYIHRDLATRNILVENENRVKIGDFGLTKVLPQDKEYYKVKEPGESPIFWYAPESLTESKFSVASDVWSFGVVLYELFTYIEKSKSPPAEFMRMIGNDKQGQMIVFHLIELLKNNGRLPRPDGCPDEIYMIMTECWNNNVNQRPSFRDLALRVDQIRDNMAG
Chain of STK4 (Q13043 whole entry): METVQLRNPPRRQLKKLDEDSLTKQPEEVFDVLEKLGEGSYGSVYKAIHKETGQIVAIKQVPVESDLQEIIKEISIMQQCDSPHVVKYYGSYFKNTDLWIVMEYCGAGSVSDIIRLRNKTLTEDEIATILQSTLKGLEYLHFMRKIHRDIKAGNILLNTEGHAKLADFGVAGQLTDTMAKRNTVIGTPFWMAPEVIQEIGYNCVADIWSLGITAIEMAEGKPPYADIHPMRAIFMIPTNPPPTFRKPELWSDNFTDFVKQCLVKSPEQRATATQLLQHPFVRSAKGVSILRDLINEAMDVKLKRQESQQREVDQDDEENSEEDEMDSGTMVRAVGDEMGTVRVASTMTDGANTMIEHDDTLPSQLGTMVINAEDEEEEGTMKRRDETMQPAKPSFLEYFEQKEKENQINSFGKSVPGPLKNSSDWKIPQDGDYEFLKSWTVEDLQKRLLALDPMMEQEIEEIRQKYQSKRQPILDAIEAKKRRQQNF

SMILES | affinity for STK4, as of ATP binding [1] | protein levels of BAX [2] | PARP cleavage [3] | protein levels of PUMA [4] | protein levels of p21 [5] | susceptibility of cells on co-culture with stromal cell supernatant (cell growth, MTT) [6] | growth inhibitory effect of Lenalidomide/Pomalidomide in combination [6] | inhibition at 10 µM [7, 8] | inhibition at 10 µM ([7]; read-out: inhibition (10 μM))
Nc1ncc(-c2cccc([N+](=O)[O-])c2F)cc1-c1ccc2c(c1)CCNC2=O [Compound I-9, 6-(2-amino-5-(2-fluoro-3-nitrophenyl)pyridin-3-yl)-3,4-dihydroisoquinolin-1(2H)-one] | highest affinity | upregulation | induction of PARP cleavage | upregulation | upregulation | – | – | – | –
COc1cc(NS(=O)(=O)C2CC2)ccc1-c1cnc(N)c(-c2ccc3c(c2)CCNC3=O)c1 [Compound I-50, N-(4-(6-amino-5-(1-oxo-1,2,3,4-tetrahydroisoquinolin-6-yl)pyridin-3-yl)-3-methoxyphenyl) cyclopropanesulfonamide] | – | – | – | – | – | enhanced the susceptibility | enhanced the growth inhibitory effect | 0% | -71.2%
Nc1ncc(-c2ccc(NS(=O)(=O)C3CC3)cc2F)cc1-c1ccc2c(c1)CCNC2=O [Compound I-51, N-(4-(6-amino-5-(1-oxo-1,2,3,4-tetrahydroisoquinolin-6-yl)pyridin-3-yl)-3-fluorophenyl) cyclopropanesulfonamide] | – | – | – | – | – | enhanced the susceptibility | enhanced the growth inhibitory effect | – | –
Nc1ncc(-c2ccc(NS(=O)(=O)C3CC3)cc2OC2CCCCC2)cc1-c1ccc2c(c1)CCNC2=O [Compound I-65, N-(4-(6-amino-5-(1-oxo-1,2,3,4-tetrahydroisoquinolin-6-yl)pyridin-3-yl)-3-(cyclohexyloxy)phenyl) cyclopropanesulfonamide] | – | – | – | – | – | – | – | 0% | 18.8%
